In ChEMBL document CHEMBL3045386, “Flavonoids as lead compounds modulating the enzyme targets in Alzheimers disease” (Med Chem Res, 2013):

Experiments:
Acetylcholinesterase = Acetylcholinesterase (Homo sapiens, UniProt P22303); experiment: Inhibition of AChE (unknown origin)
Cholinesterase = Cholinesterase (Homo sapiens, UniProt P06276); experiment: Inhibition of BuChE (unknown origin)
[1] = Inhibition of NADPH oxidase in Homo sapiens (human) HUVEC cells; format: cell-based
[2] = molecular target: Glycogen synthase kinase-3 beta (Homo sapiens, UniProt P49841); experiment: Inhibition of Homo sapiens (human) recombinant GSK3beta after 30 min by Kinase-Glo assay
Beta-secretase 1 = Beta-secretase 1 (Homo sapiens, UniProt P56817); experiment: Inhibition of BACE1 (unknown origin)
Sequence of Beta-secretase 1 (P56817 whole entry): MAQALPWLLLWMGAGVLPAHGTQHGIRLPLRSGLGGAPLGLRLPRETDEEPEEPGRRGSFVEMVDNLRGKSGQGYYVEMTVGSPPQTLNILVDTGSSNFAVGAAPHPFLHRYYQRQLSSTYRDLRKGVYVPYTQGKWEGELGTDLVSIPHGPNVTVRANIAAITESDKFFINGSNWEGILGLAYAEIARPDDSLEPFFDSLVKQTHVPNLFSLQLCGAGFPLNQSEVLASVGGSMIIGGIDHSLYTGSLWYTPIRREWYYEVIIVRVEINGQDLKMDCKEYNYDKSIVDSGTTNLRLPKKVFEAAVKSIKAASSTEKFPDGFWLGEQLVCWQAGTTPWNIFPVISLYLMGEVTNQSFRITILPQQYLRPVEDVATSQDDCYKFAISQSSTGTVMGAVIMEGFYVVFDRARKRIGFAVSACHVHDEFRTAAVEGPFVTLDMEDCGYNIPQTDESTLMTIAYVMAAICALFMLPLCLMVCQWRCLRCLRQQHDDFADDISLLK

Sequence of Cholinesterase (P06276 whole entry): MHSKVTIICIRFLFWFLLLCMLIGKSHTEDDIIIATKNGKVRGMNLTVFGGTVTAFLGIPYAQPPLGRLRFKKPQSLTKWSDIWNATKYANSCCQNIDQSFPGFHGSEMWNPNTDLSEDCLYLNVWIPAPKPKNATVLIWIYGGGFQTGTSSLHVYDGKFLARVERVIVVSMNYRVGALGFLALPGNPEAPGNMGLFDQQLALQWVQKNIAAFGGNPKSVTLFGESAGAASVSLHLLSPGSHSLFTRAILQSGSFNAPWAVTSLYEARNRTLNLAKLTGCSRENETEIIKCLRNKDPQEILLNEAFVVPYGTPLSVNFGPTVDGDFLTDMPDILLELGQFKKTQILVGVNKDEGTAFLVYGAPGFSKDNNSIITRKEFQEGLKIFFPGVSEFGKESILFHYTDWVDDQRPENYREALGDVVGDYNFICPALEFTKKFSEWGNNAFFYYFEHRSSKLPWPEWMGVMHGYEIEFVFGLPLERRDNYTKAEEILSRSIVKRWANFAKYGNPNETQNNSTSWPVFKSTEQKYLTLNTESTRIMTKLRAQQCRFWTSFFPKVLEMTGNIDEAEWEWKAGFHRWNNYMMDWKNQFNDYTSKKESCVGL
Sequence of Glycogen synthase kinase-3 beta (P49841 whole entry): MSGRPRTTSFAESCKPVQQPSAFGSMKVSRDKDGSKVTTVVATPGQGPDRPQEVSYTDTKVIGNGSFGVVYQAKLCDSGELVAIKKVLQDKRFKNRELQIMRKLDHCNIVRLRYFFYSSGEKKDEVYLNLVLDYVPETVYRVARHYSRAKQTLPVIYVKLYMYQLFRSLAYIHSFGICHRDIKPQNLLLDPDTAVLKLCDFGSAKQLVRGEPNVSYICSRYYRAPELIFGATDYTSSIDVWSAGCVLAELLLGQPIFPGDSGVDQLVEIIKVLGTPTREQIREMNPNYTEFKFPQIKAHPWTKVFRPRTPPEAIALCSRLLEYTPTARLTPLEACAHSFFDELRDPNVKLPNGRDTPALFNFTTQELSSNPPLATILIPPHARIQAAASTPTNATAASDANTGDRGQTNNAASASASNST
Sequence of Acetylcholinesterase (P22303 whole entry): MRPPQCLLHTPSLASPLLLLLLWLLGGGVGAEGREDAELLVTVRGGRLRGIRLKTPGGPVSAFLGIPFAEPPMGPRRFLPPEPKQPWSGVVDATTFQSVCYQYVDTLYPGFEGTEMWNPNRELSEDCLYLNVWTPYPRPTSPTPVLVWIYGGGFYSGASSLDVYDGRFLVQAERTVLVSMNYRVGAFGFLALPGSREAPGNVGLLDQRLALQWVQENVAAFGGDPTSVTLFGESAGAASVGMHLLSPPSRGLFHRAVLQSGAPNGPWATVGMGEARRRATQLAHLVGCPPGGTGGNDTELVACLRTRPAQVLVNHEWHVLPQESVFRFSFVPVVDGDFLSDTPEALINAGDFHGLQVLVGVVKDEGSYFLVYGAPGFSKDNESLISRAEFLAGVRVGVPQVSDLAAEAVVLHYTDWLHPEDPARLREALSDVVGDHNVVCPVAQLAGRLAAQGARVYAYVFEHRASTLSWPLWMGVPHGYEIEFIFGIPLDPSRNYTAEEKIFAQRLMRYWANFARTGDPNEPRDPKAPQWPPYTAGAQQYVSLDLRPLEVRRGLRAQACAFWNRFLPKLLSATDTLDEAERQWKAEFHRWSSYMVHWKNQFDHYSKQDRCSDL

SMILES: CC(C)=CCC/C(C)=C/Cc1cc(-c2cc(=O)c3c(O)cc(O)cc3o2)c(O)cc1O
- IC50 (Acetylcholinesterase): 16200 nM
- Ki (Acetylcholinesterase): 3.1 µM
- IC50 (Cholinesterase): 16200 nM

SMILES: COc1cc(O)c(-c2cc(=O)c3c(O)cc(O)cc3o2)cc1C/C=C(\C)CCC=C(C)C
- IC50 (Acetylcholinesterase): 11000 nM
- Ki (Acetylcholinesterase): 3.1 µM
- IC50 (Cholinesterase): 11000 nM
- Ki (Cholinesterase): 1740 nM

SMILES: COc1cc2occ(-c3ccc(OC4CCN(Cc5ccccc5)CC4)cc3)c(=O)c2cc1OC
- IC50 (Acetylcholinesterase): 93 nM

SMILES: COc1cc2occ(-c3ccc(N4CCCC4)cc3)c(=O)c2cc1OC
- IC50 (Acetylcholinesterase): 1630 nM

SMILES: COc1cc([C@H]2Oc3cc(O)cc(O)c3C[C@H]2O)ccc1O [3'-O-METHYL EPICATECHIN]
- IC50 [1]: 7.9 µM

SMILES: O=C1c2c(O)cc(O)cc2O[C@H](c2ccc(O)c(O)c2)[C@H]1O [(+)-TAXIFOLIN]
- IC50 [1]: 12 µM

SMILES: Oc1cc(O)c2c(c1)O[C@H](c1ccc(O)c(O)c1)[C@H](O)C2 [(-)-EPICATECHIN]
- IC50 [1]: > 100 µM

SMILES: O=c1cc(-c2ccc(O)cc2)oc2cc(O)cc(O)c12 [APIGENIN]
- IC50 [2]: 1.9 µM
- IC50 (Acetylcholinesterase): 12 nM

SMILES: CC(C)=CC1Oc2cc(O)ccc2-c2oc3c4c(cc(O)c3c(=O)c21)OC(C)(C)C=C4 (configuration not stated) [CYCLOMORUSIN]
- Ki (Acetylcholinesterase): 3.1 µM
- IC50 (Cholinesterase): 1700 nM

SMILES: COc1ccc(-c2cc(=O)c3c(O)cc(O)cc3o2)cc1O [DIOSMETIN]
- IC50 [1]: 7.6 µM

SMILES: Oc1cc(O)c2c(c1)O[C@H](c1cc(O)c(O)c(O)c1)[C@H](O)C2 [EPIGALLOCATECHIN]
- IC50 [1]: 8 µM

SMILES: O=c1c(O)c(-c2ccc(O)c(O)c2)oc2cc(O)ccc12 [FISETIN]
- IC50 (Acetylcholinesterase): 12 nM

SMILES: O=c1c(O)c(-c2ccccc2)oc2cc(O)cc(O)c12 [GALANGIN]
- IC50 (Acetylcholinesterase): 12 nM

SMILES: COc1ccc([C@@H]2CC(=O)c3c(O)cc(O)cc3O2)cc1O [HESPERETIN]
- IC50 [2]: 26.9 µM

SMILES: COc1ccc([C@@H]2CC(=O)c3c(O)cc(O[C@@H]4O[C@H](CO[C@@H]5O[C@@H](C)[C@H](O)[C@@H](O)[C@H]5O)[C@@H](O)[C@H](O)[C@H]4O)cc3O2)cc1O [HESPERIDIN]
- IC50 [2]: 100 µM

SMILES: OCCc1ccc(O)c(O)c1 [HYDROXYTYROSOL]
- IC50 [1]: 7.5 µM

SMILES: COc1cc(-c2oc3cc(O)cc(O)c3c(=O)c2O)ccc1O [ISORHAMNETIN]
- IC50 [1]: 2.8 µM

SMILES: O=c1c(OC2O[C@H](CO)[C@H](O)[C@H](O)[C@H]2O)c(-c2ccc(O)cc2)oc2cc(O)cc(O)c12 (stereo partly drawn) [KAEMPFEROL 3-O-D-GALACTOSIDE]
- IC50 (Acetylcholinesterase): 12 nM

SMILES: O=c1c(O)c(-c2ccc(O)cc2)oc2cc(O)cc(O)c12 [KAEMPFEROL]
- IC50 (Beta-secretase 1): 14.7 µM
- IC50 [1]: 10 µM

SMILES: CC(C)=CCc1c(-c2ccc(O)cc2O)oc2c(CC=C(C)C)c(O)cc(O)c2c1=O [KUWANON C]
- Ki (Acetylcholinesterase): 3.1 µM
- IC50 (Cholinesterase): 1700 nM

SMILES: CC(C)=CCC/C(C)=C/Cc1cc(C2CC(=O)c3c(O)cc(O)cc3O2)c(O)cc1O (configuration not stated) [KUWANON E]
- Ki (Acetylcholinesterase): 3.1 µM
- IC50 (Cholinesterase): 1700 nM

SMILES: COc1cc(O)c(C2CC(=O)c3c(O)cc(O)cc3O2)cc1C/C=C(\C)CCC=C(C)C (configuration not stated) [KUWANONU]
- Ki (Acetylcholinesterase): 3.1 µM
- IC50 (Cholinesterase): 1700 nM

SMILES: O=c1cc(-c2ccc(O)c(O)c2)oc2cc(O)cc(O)c12 [LUTEOLIN]
- IC50 [2]: 1.5 µM

SMILES: O=c1c(O)c(-c2ccc(O)cc2O)oc2cc(O)cc(O)c12 [MORIN]
- IC50 (Beta-secretase 1): 21.7 µM

SMILES: CC(C)(O)CCc1c(-c2ccc(O)cc2O)oc2c3c(cc(O)c2c1=O)OC(C)(C)C=C3 [MORUSINOL]
- Ki (Acetylcholinesterase): 3.1 µM
- IC50 (Cholinesterase): 1700 nM

SMILES: CC(C)=CCc1c(-c2ccc(O)cc2O)oc2c3c(cc(O)c2c1=O)OC(C)(C)C=C3 [MORUSIN]
- Ki (Acetylcholinesterase): 3.1 µM
- IC50 (Cholinesterase): 1700 nM

SMILES: O=c1c(O)c(-c2cc(O)c(O)c(O)c2)oc2cc(O)cc(O)c12 [MYRICETIN]
- IC50 (Beta-secretase 1): 2.8 µM
- IC50 (Acetylcholinesterase): 12 nM

SMILES: O=C1C[C@@H](c2ccc(O)cc2)Oc2cc(O)cc(O)c21 [NARINGENIN]
- IC50 [2]: 45.7 µM

SMILES: C[C@@H]1O[C@@H](O[C@H]2[C@H](Oc3cc(O)c4c(c3)O[C@H](c3ccc(O)cc3)CC4=O)O[C@H](CO)[C@@H](O)[C@@H]2O)[C@H](O)[C@H](O)[C@H]1O [NARINGIN]
- IC50 [2]: 100 µM

SMILES: CC1(C)C=Cc2c(cc(O)c3c(=O)c4c(oc23)-c2ccc(O)cc2OC(C(C)(C)O)C4)O1 (configuration not stated) [NEOCYCLOMORUSIN]
- Ki (Acetylcholinesterase): 3.1 µM
- IC50 (Cholinesterase): 1700 nM

SMILES: Oc1cc(O)c2c(c1)O[C@H](c1ccc(O)c(O)c1)[C@H](O)[C@H]2c1c(O)cc(O)c2c1O[C@H](c1ccc(O)c(O)c1)[C@H](O)C2 [PROCYANIDIN B2]
- IC50 [1]: 3.8 µM

SMILES: O=c1c(O)c(-c2ccc(O)c(O)c2)oc2cc(O)cc(O)c12 [QUERCETIN]
- IC50 [2]: 2 µM
- IC50 (Acetylcholinesterase): 354000 nM
- IC50 (Cholinesterase): 421000 nM
- IC50 [1]: > 100 µM

SMILES: C[C@@H]1O[C@@H](OC[C@H]2O[C@@H](Oc3c(-c4ccc(O)c(O)c4)oc4cc(O)cc(O)c4c3=O)[C@H](O)[C@@H](O)[C@@H]2O)[C@H](O)[C@H](O)[C@H]1O [RUTIN]
- IC50 (Acetylcholinesterase): 12 nM

SMILES: OCCc1ccc(O)cc1 [TYROSOL]
- IC50 [1]: 7.5 µM
